Assay results from article PMC3401593 (Journal of Pharmaceutical Sciences, 2009).
Marks after values point to notes of the source that are not given here.

Key:
in vitro = conditions: human, Caco-2
[1] = test system: mdr1a/b (+/+) and mdr1a/b (−/−) mice; conditions: mouse, in vivo
[2] = mouse, in vivo, sc
P-gp = assay: in vitro; conditions: human, Caco-2, Papp B–A

In the case of `OC[C@@H](O)[C@@H](O)[C@H](O)[C@H](O)CO` [mannitol], the Papp at 0.2 μCi/mL (in vitro) is reported as 5.21 ×10⁻⁶ cm/s.

In the case of `CCC(=O)C(CC(C)N(C)C)(c1ccccc1)c1ccccc1` (centres unmarked) [Methadone, methadone], the “%MPE, P-gp knockout mice versus wild-type” value [1] is reported as “significantly higher”, the “Area Under the Effect Curve (AUEC), mdr1a/b (+/+)” value [1] is reported as 1501.85 ± 246.45 % MPE × min and the “Area Under the Effect Curve (AUEC), mdr1a/b (−/−)” value [1] is reported as 4099.26 ± 488.58 ^a % MPE × min. The “Time of peak %MPE” value [1] was 15 min, the “Levels in liver and kidney tissues, mdr1a/b (−/−) versus mdr1a/b (+/+) mice” value [2] was “no significant differences” and the Papp B→A (P-gp) was 19.4 ± 1.01 ×10⁻⁶ cm/s.

For buprenorphine, the “AUEC Ratio mdr1a/b (−/−)/mdr1a/b (+/+)” value [1] was 1.47 ± 0.3, the “Area Under the Effect Curve (AUEC), mdr1a/b (+/+)” value [1] was 1943.74 ± 326.81 % MPE × min and the “Area Under the Effect Curve (AUEC), mdr1a/b (−/−)” value [1] was 2854.93 ± 325.27 % MPE × min. For the same molecule, the “Time of peak %MPE” value [1] was 45 min.
